From patent publication US6607723B1, “Methods and compositions for attenuating antibody-mediated xenograft rejection in human recipients” (priority 1991, dated 2003) come the findings set out here.

Series [1] deals with pig kidney cell line (LLC-PK1). Put plainly: Chromium release assay, plasma incubated with soluble carbohydrate haptens. The class given is cell-based. Conditions: heat inactivated human plasma (O and A), 1 ml incubated overnight at 4° C. with 0.215 g hapten; FIGS. 8A and 8B.
Procedure: Undiluted heat-inactivated plasma (100 μl) was incubated with 100 μl of chromium-labelled target cells (2×10^4 cells) in 96 well V bottom microtiter plates (Dynatech Lab., Chantilly, Va., U.S.A.: Cat.# 1-220-25X) at 37° C. for 1 hour with shaking (20 rpm). A 1/15 dilution of rabbit complement (LOWTOX-M from Cedarlane Laboratories Ltd., Hornby, Ontario, Canada: Cat.# CL3051) was added to each well. The plate was again incubated for 1 hour at 37° C. with shaking. Plates were then spun at 1000 rpm and supernatants were counted for chromium content in the Beckman gamma 4000 counter (Beckman Instruments, Inc., Fullerton, Calif., U.S.A.). Spontaneous and total release controls were also run. Spontaneous counts were always less than 5% of the total counts, and typical total counts of cells ranged from 10,000 to 20,000 cpm.
This procedure was done to investigate the potential for inhibiting human preformed cytotoxic antibodies with carbohydrate(s) haptens. […] The chromium release assay was then performed with treated and untreated plasma; the pig kidney cell line (LLC-PK1) was used as the target cell.
The test system of series [2] is Human Anti-Pig Kidney antibodies. Description: ELISA: human antibodies eluted from pig kidney binding to carbohydrate-BSA antigens. Conditions: BSA well O.D. subtracted. On the procedure: (§1) Organs from two populations of pigs were used to purify human anti-pig antibodies. The pig strains were Poland China and Yorkshire. Antibody preparations were obtained by perfusing 100-200 ml of human plasma (O or AB) through pig hearts, pig kidneys or through a column containing solid support coated with pig red cell stroma. After washing the tissues thoroughly with 0.15 M NaCl, the retained antibodies were eluted from the tissue or column using 200 ml of 3M NaSCN. The antibodies were concentrated, and then the protein content determined. Carbohydrate antigens were made by covalent binding of the synthetic oligosaccharides with an aliphatic linking arm (CH2)8COOCH3 to BSA as described by Pinto and Bundle (1983)^19 and/or Lemieux, Bundle, Baker (U.S. Pat. No. 4,137,401)^13 (ten to twenty haptens per molecule of BSA). Example 5, infra, describes this procedure as applied to carbohydrate 2 of FIG. 1A. Structures and trivial names of some of the monosaccharides and oligosaccharides used are included in FIGS. 1A to 1H. The use of synthetic carbohydrate structures to detect antibody binding has been previously described in U.S. Pat. No. 4,137,401^13. The technology used for the ELISA assay for detecting anti-carbohydrate antibodies is a combination of the work from numerous groups. Wells in 96 microtitration plates (Flow Laboratories, Inc., McLean Va., U.S.A.) were coated by incubation at room temperature for 16 hours with 2 μg of BSA-glycoconjugates or BSA per well (20 μg BSA-conjugate/ml diluted in PBS). The coating solutions were removed and 200 μl/well of PBS containing 5% BSA was added. After a 4 hours incubation (22° C.), the wells were washed twice with PBS, then once with H2O. The plates were inverted, allowed to dry, and stored at room temperature. Immediately before testing, 200 μl of PBS containing 1% BSA (1% BSA/PBS) was added to each of the wells and left to stand for 10 to 20 minutes at ambient temperature. The human anti-pig preparations were diluted to between 15 to 70 μg of eluted protein per ml of 1% BSA/PBS. The BSA/PBS was removed and 100 μl of diluted anti-pig preparation was added to the appropriate wells, then incubated at 4° C. for 16 hours. The antibody preparations were removed and the wells were washed 4 times with PBS (200 μl/wash). Alkaline phosphatase-conjugated reagents (anti-human polyvalent (α, γ and μ chain specific), anti-human IgG (γ chain specific) and anti-human IgM (μ chain specific)) from Sigma Chemical Company (St. Louis, Mo., U.S.A.) were each diluted 1/500 in 1% BSA/PBS. One hundred μl of this mixture was added to each well. After 2 hours, wells were washed four times with PBS, then 100 μl/well of 1.0 mg of p-nitrophenyl phosphate/ml of 1 M diethanolamine-HCl (pH 9.8) containing 19% BSA and 500 μM MgCl2 was added. After 1 hour, optical densities at 405 nm (O.D.) were measured using a Microplate Autoreader (Model EL 309, BIO-TEK Instruments, Winooski, Vt., U.S.A.). The O.D. results for BSA-coated wells were subtracted from the results for the glycoconjugate-BSA-coated wells for each preparation. The assays were performed in duplicate.

The subject of series [3] is Human Anti-Pig Heart antibodies. Description: ELISA: human antibodies eluted from pig heart binding to carbohydrate-BSA antigens. Particulars: for Optical Density (405 nm): BSA well O.D. subtracted; for O.D. readings: most of the human anti-pig heart preparations. On the procedure: as §1
Series [4] deals with human antibodies eluted from pig heart, pig kidney and/or pig red cell stroma. Put plainly: ELISA: human anti-pig antibody preparations overall binding to carbohydrate antigens. On the procedure:
Organs from two populations of pigs were used to purify human anti-pig antibodies. The pig strains were Poland China and Yorkshire. Antibody preparations were obtained by perfusing 100-200 ml of human plasma (O or AB) through pig hearts, pig kidneys or through a column containing solid support coated with pig red cell stroma. After washing the tissues thoroughly with 0.15 M NaCl, the retained antibodies were eluted from the tissue or column using 200 ml of 3M NaSCN. The antibodies were concentrated, and then the protein content determined. Carbohydrate antigens were made by covalent binding of the synthetic oligosaccharides with an aliphatic linking arm (CH2)8COOCH3 to BSA as described by Pinto and Bundle (1983)^19 and/or Lemieux, Bundle, Baker (U.S. Pat. No. 4,137,401)^13 (ten to twenty haptens per molecule of BSA). Example 5, infra, describes this procedure as applied to carbohydrate 2 of FIG. 1A. Structures and trivial names of some of the monosaccharides and oligosaccharides used are included in FIGS. 1A to 1H. The use of synthetic carbohydrate structures to detect antibody binding has been previously described in U.S. Pat. No. 4,137,401^13. […] After 1 hour, optical densities at 405 nm (O.D.) were measured using a Microplate Autoreader (Model EL 309, BIO-TEK Instruments, Winooski, Vt., U.S.A.). […]

The mark [5] stands for this setting: Human Anti-Pig Kidney preparation 5 A°, human O plasma adsorbed onto tissue.
[6] abbreviates: Human Anti-Pig Kidney preparation 5 B^AB, human AB plasma adsorbed onto tissue.
Where [7] appears, read: Human Anti-Pig Kidney preparation 6 A°, human O plasma.
Setting [8] is: Human Anti-Pig Kidney preparation 6 B^AB, human AB plasma.
[9] abbreviates: Human Anti-Pig Kidney preparation 7 A^AB, human AB plasma.
Setting [10] is: Human Anti-Pig Kidney preparation 7 B°, human O plasma.
The mark [11] stands for this setting: Human Anti-Pig Kidney preparation 8 A°, human O plasma, pig of A-phenotype.
[12] abbreviates: Human Anti-Pig Kidney preparation 9 B^AB, human AB plasma.
Setting [13] is: Human Anti-Pig Heart preparation 5^AB, human AB plasma.
Setting [14] is: Human Anti-Pig Heart preparation 6°, human O plasma.
[15] abbreviates: Human Anti-Pig Heart preparation 7^AB, human AB plasma.
Where [16] appears, read: Human Anti-Pig Heart preparation 9°, human O plasma.

For `C[C@@H]1O[C@@H](O[C@H]2C(O)O[C@H](CO)[C@H](O)[C@@H]2O[C@H]2O[C@H](CO)[C@H](O)[C@H](O)[C@H]2O)[C@@H](O)[C@H](O)[C@@H]1O` (stereo partly shown) [B trisaccharide], in series [1], the “cytotoxic effect of antibodies to the pig cell line” value is on record as “partially inhibited”.
For “(αGal(1-3)βGal(1-4)βGlc-O—(CH2)8CONH)17-BSA [formula 2]”, the “Optical Density (405 nm)” value in series [2] (setting [5]) is 1.9; in series [2] (setting [6]), 1.3; in series [2] (setting [7]), over 2.0; in series [2] (setting [8]), over 2.0; in series [2] (setting [9]) it was 0.8; in series [2] (setting [10]), 1.8. In addition, the “Optical Density (405 nm)” value in series [2] (setting [11]) was 1.2; in series [2] (setting [12]) it was over 2.0; in series [3] (setting [13]), 1.0; in series [3] (setting [14]), 0.3; in series [3] (setting [15]) it was 1.2; in series [3] (setting [16]), 0.8. In addition, in series [4] (every preparation of antibodies tested (Table 1)), the “antibodies to the carbohydrate present in eluted antibody preparations” value is reported as “present in every preparation”. Further, in series [4] (majority of samples tested, including anti-pig heart and anti-pig kidney), the “reactivity in ELISA” value was “most reactivity”.
On to `C[C@@H]1O[C@@H](O)[C@H](O)[C@H](O)[C@H]1O` [formula 31, α-L-Rhamnose], for which the “Optical Density (405 nm)” value in series [2] (setting [5]) is listed as 0.2; in series [2] (setting [6]), 0.0; in series [2] (setting [7]), 0.3; in series [2] (setting [8]) it was 0.5; in series [2] (setting [9]), 1.7; in series [2] (setting [10]), 0.1. Besides, the “Optical Density (405 nm)” value in series [2] (setting [11]) is 0.0; in series [2] (setting [12]), 0.1; in series [3] (setting [13]) it was 0.7; in series [3] (setting [14]), 0.4; in series [3] (setting [15]) it was over 2.0; in series [3] (setting [16]) it was 0.6. The “O.D. readings” value in series [3] is “some of the highest readings”.
Turning to `CC(=O)N[C@H]1[C@H](O[C@@H]2[C@H](O)[C@@H](O)[C@H](C)O[C@H]2O)O[C@H](CO)[C@@H](O)[C@@H]1O[C@@H]1O[C@@H](C)[C@H](O)[C@@H](O)[C@H]1O` [formula 32, α-L-Rha(1-3)βGlcNAc(1-2)α-L-Rha], the “Optical Density (405 nm)” value stood at 1.4 in series [2] (setting [5]); 0.8 in series [2] (setting [6]); 0.1 in series [2] (setting [7]); 0.3 in series [2] (setting [8]); 1.9 in series [2] (setting [9]); 0.8 in series [2] (setting [10]). The “Optical Density (405 nm)” value in series [2] (setting [11]) came to 0.1; in series [2] (setting [12]), 0.1; in series [3] (setting [13]), 1.0; in series [3] (setting [14]) it was 0.3; in series [3] (setting [15]), 1.6; in series [3] (setting [16]), 1.1. The “O.D. readings” value in series [3] is listed as “some of the highest readings”.
For the compound `CC(=O)N[C@@H]1[C@@H](O)[C@H](O[C@@H]2O[C@H](CO)[C@@H](O)[C@H](O)[C@H]2NC(C)=O)[C@@H](CO)O[C@H]1O` [formula 26, βGlcNAc(1-4)βGlcNAc], the “Optical Density (405 nm)” value was found to be 0.4 in series [2] (setting [5]); 0.3 in series [2] (setting [6]); 0.2 in series [2] (setting [7]); 0.4 in series [2] (setting [8]); 0.9 in series [2] (setting [9]); 0.1 in series [2] (setting [10]). Also, the “Optical Density (405 nm)” value in series [2] (setting [11]) is 0.0; in series [2] (setting [12]) it was 0.1; in series [3] (setting [13]) it was 0.5; in series [3] (setting [14]) it was 0.2; in series [3] (setting [15]), over 2.0; in series [3] (setting [16]) it was 1.7. In addition, the “O.D. readings” value in series [3] is recorded as “some of the highest readings”.
As for N-acetyl-β-D-Glucosaminide [formula 25], the “Optical Density (405 nm)” value in series [2] (setting [5]) was 0.5; in series [2] (setting [6]) it was 0.7; in series [2] (setting [7]) it was 0.4; in series [2] (setting [8]), 1.0; in series [2] (setting [9]), 1.1; in series [2] (setting [10]) it was 0.5. Moreover, the “Optical Density (405 nm)” value was 0.1 in series [2] (setting [11]); 0.1 in series [2] (setting [12]); 2.0 in series [3] (setting [13]); 0.4 in series [3] (setting [14]); over 2.0 in series [3] (setting [15]); 1.5 in series [3] (setting [16]). Besides, in series [3], the “O.D. readings” value is “some of the highest readings”.
